Measured values: publication PMC4657098, “A Review of the Updated Pharmacophore for the Alpha 5 GABA(A) Benzodiazepine Receptor Model” (International Journal of Medicinal Chemistry, 2015)

Experiments:
[1] = target: T1, α4β3γ2 GABAA/BzR (Homo sapiens, UniProt P18507+P48169); experiment: biochemical; type: binding; details: read-out: Ki α4
T1 construct: expressed in transfected cells; host or cells: LTK cells (given for XLi-093 only)

[2] = target: α1β3γ2 GABAA/BzR (Homo sapiens, UniProt P14867+P18507); experiment: Competition binding to HEK cell membranes, α1β3γ2; design: expressed in transfected cells; details: read-out: Ki α1
[3] = target: α2β3γ2 GABAA/BzR (Homo sapiens, UniProt P18507+P47869); experiment: Competition binding to HEK cell membranes, α2β3γ2; design: expressed in transfected cells; details: read-out: Ki α2
[4] = target: α3β3γ2 GABAA/BzR (Homo sapiens, UniProt P18507+P34903); experiment: Competition binding to HEK cell membranes, α3β3γ2; design: expressed in transfected cells; details: read-out: Ki α3
[5] = target: α5β3γ2 GABAA/BzR (Homo sapiens, UniProt P18507+P31644); experiment: Competition binding to HEK cell membranes, α5β3γ2; design: expressed in transfected cells; details: read-out: Ki α5
[6] = target: α6β3γ2 GABAA/BzR (Homo sapiens, UniProt P18507+Q16445); experiment: Competition binding to HEK cell membranes, α6β3γ2; design: expressed in transfected cells; details: read-out: Ki α6

Compound	Ki [1]	Ki [2]	Ki [3]	Ki [4]	Ki [5]	Ki [6]
CCC(OC(=O)c1ncn2c1C1CCCN1C(=O)c1cc(Br)ccc1-2)C(F)(F)F (mixture of isomers) [CM-B34]	114 nM	472 nM	451 nM	223 nM	17 nM	175 nM
CCC(OC(=O)c1ncn2c1C1CCCN1C(=O)c1cc(Cl)ccc1-2)C(F)(F)F (mixture of isomers) [CM-B45]	265 nM	230 nM	557 nM	336 nM	15 nM	230 nM
CCC(OC(=O)c1ncn2c1C1CCCN1C(=O)c1cc(F)ccc1-2)C(F)(F)F (mixture of isomers) [CM-B47]	2010 nM	32 nM	63 nM	34 nM	4.4 nM	717 nM
CC(C)(C)CC(=O)c1cc2c(cn1)[nH]c1ccccc12 [CM-A77]	1000 nM	11.5 nM	51.9 nM	105 nM	42.6 nM	1000 nM
CC(C)(C)OC(=O)c1cc2c(cn1)[nH]c1ccc(I)cc12 [CM-A100]	1000 nM	14.5 nM	44.9 nM	124 nM	65.3 nM	1000 nM
CCOC(=O)c1cc2c(cn1)[nH]c1ccc(I)cc12 [CM-B01]	1000 nM	4.8 nM	31 nM	34 nM	286 nM	1000 nM
CC[C@H](C)OC(=O)c1ncn2c1[C@@H]1CCCN1C(=O)c1cc(I)ccc1-2 [CM-B31i (ss)]	18 nM	90 nM	184 nM	78 nM	4.9 nM	–
CC[C@H](C)OC(=O)c1ncn2c1[C@@H]1CCCN1C(=O)c1cc(F)ccc1-2 [CM-B44 (ss)]	379 nM	32 nM	43 nM	12 nM	4.3 nM	485 nM
CCC(C)OC(=O)c1ncn2c1C1CCCN1C(=O)c1cc(F)ccc1-2 (centres unmarked) [CM-B44]	379 nM	32 nM	43 nM	12 nM	4.3 nM	485 nM
CCOC(=O)c1ncn2c1C1CCN1C(=O)c1cc(OC)ccc1-2 (centres unmarked) [CM-D44]	0.33 nM	34.3 nM	56.3 nM	20.7 nM	0.57 nM	0.92 nM
COc1ccc2c(c1)C(=O)N1CCC1c1c(C(=O)OC(C)(C)C)ncn1-2 (centres unmarked) [CM-D45 C19H21N3O4]	0.15 nM	90.5 nM	65.5 nM	30.3 nM	1.65 nM	0.23 nM
COc1ccc2c(c1)C(=O)N1CC[C@H]1c1c(C(=O)OC(C)(C)C)ncn1-2 [CM-D45]	0.15 nM	90.5 nM	65.5 nM	30.3 nM	1.65 nM	0.23 nM
COc1ccc2c(c1)C(=O)N1CCC[C@H]1c1c(C(=O)OCC(F)(F)F)ncn1-2 [CM-E09a]	490 nM	176 nM	192 nM	122 nM	9.2 nM	718 nM
COc1ccc2c(c1)C(=O)N1CCCC1c1c(C(=O)OC(C)C)ncn1-2 (centres unmarked) [CM-E09b]	55 nM	20 nM	22 nM	19 nM	0.45 nM	69 nM
C#Cc1ccc2c(c1)C(c1ccccc1)=NCc1c(C(=O)OCC(F)(F)F)ncn1-2 [DM-II-20]	–	54.3 nM	27.1 nM	35.7 nM	15.3 nM	5000 nM
O=C(OCC(F)(F)F)c1ncn2c1CN=C(c1ccccc1)c1ccccc1-2 [DM-II-30]	–	17.6 nM	13.4 nM	28.5 nM	7.8 nM	5000 nM
O=C(OCC(Cl)(Cl)Cl)c1ncn2c1CN=C(c1ccccc1)c1cc(Br)ccc1-2 [DM-II-33 (C20H13N3O2BrCl3)]	–	88.6 nM	85 nM	11.6 nM	26.2 nM	5000 nM
Cc1nnc2n1-c1ccc(Br)cc1C(c1ccccc1Cl)=NC2 [DM-II-90]	–	0.505 nM	1 nM	0.63 nM	0.37 nM	5000 nM
CC(C)c1nc(-c2ncn3c2CN(C)C(=O)c2c(Cl)cccc2-3)no1 [FG8205, reference compound]	–	0.4 nM	2.08 nM	1.16 nM	1.54 nM	227 nM
C#Cc1ccc2c(c1)C(c1cccs1)=NCc1c(C(=O)OCC)ncn1-2 [JC221]	–	106 nM	49.4 nM	182 nM	7.75 nM	362 nM
